Source: patent publication US9908831B2, “Resist composition, method for forming resist pattern, polyphenolic compound for use in the composition, and alcoholic compound that can be derived therefrom” (Mitsubishi Gas Chemical Company, Inc., priority 2011, dated 2018)

What was measured:
Format in all cases: physicochemical
[1] = Thermal decomposition temperature by DSC; conditions: 10° C./min to 500° C., nitrogen gas stream
Experimental: (3) Thermal Decomposition Temperature
The apparatus EXSTAR6000DSC (trade name) manufactured by SII NanoTechnology Inc. was used. About 5 mg of each sample was placed in a non-sealed container made of aluminum, and the temperature was raised to 500° C. at the rate of temperature rise of 10° C./min in a nitrogen gas stream (30 mL/min). The temperature corresponding to a descending peak appeared in the baseline was defined as the thermal decomposition temperature.

[2] = Solubility test of compound in safe solvent; conditions: 23° C., visual
Experimental: (2) Solubility Test of Compound in Safe Solvent
The solubility of the compound in PGME and PGMEA was evaluated according to the following standard using the dissolution amount in each solvent. For the measurement of the dissolution amount, the compound was precisely weighed in a test tube at 23° C.; and the target solvent was added to the compound so that a predetermined concentration of the liquid to be obtained was set; a ultrasonic wave was applied to the liquid in an ultrasonic washing machine for 30 minutes; and the state of the resulting liquid was visually evaluated.
A: 5.0% by weight≦dissolution amount
B: 3.0% by weight≦dissolution amount<5.0% by weight
C: dissolution amount<3.0% by weight

[3] = Solubility of compound in methyl ethyl ketone (MEK); conditions: dissolution amount in MEK at 23° C., visual
Experimental: (1) Solubility of Compound in Methyl Ethyl Ketone (MEK)
The solubility of the compound in MEK was evaluated according to the following standard using the dissolution amount in MEK at 23° C. For the measurement of the dissolution amount, the compound was precisely weighed in a test tube at 23° C.; and the target solvent was added to the compound so that a predetermined concentration of the liquid to be obtained was set; a ultrasonic wave was applied to the liquid in an ultrasonic washing machine for 30 minutes; and the state of the resulting liquid was visually evaluated.
Evaluation A: 50% by weight or more
Evaluation B: 10% by weigh or more and less than 50% by weight
Evaluation C: less than 10% by weight

[4] = Glass transition temperature by DSC; conditions: 10° C./min to 300° C., second heating after quench, nitrogen gas stream
Experimental: (4) Glass Transition Temperature
The apparatus EXSTAR6000DSC (trade name) manufactured by SII NanoTechnology Inc. was used. About 5 mg of each sample was placed in a non-sealed container made of aluminum, and the temperature was raised to 300° C. at the rate of temperature rise of 10° C./min in a nitrogen gas stream (30 mL/min). After the non-sealed container made of aluminum was quenched, again the temperature was raised to 300° C. at the rate of temperature rise of 10° C./min in a nitrogen gas stream (30 mL/min), thereby performing DSC measurement. The temperature corresponding to the middle point (where the specific heat was changed into the half) of a region in which a discontinuous portion appeared in the baseline was defined as the glass transition point.

With `Oc1ccc2c(C(c3ccc(-c4ccccc4)cc3)c3c(O)ccc4cc(O)ccc34)c(O)ccc2c1` [BisN-1] the thermal decomposition temperature [1] was 250 °C, the “Solubility test of compound in safe solvent PGME” value [2] was “A (A: 5.0% by weight≦dissolution amount)” and the “Solubility test of compound in safe solvent PGMEA” value [2] was “A (A: 5.0% by weight≦dissolution amount)”. For the same molecule, the “solubility in MEK” value [3] was “B (Evaluation B: 10% by weigh or more and less than 50% by weight)” and the glass transition point [4] was 130 °C.
For `Oc1ccc2ccc(O)c(C(c3ccc(-c4ccccc4)cc3)c3c(O)ccc4ccc(O)cc34)c2c1` [BisN-2], the thermal decomposition temperature [1] was 250 °C, the “Solubility test of compound in safe solvent PGME” value [2] was “A (A: 5.0% by weight≦dissolution amount)” and the “Solubility test of compound in safe solvent PGMEA” value [2] was “A (A: 5.0% by weight≦dissolution amount)”. The “solubility in MEK” value [3] was “B (Evaluation B: 10% by weigh or more and less than 50% by weight)” and the glass transition point [4] was 130 °C.
With `Oc1cccc2c(O)c(C(c3ccc(-c4ccccc4)cc3)c3ccc4c(O)cccc4c3O)ccc12` [BisN-3] the thermal decomposition temperature [1] was 250 °C, the “Solubility test of compound in safe solvent PGME” value [2] was “A (A: 5.0% by weight≦dissolution amount)” and the “Solubility test of compound in safe solvent PGMEA” value [2] was “A (A: 5.0% by weight≦dissolution amount)”. For the same molecule, the “solubility in MEK” value [3] was “B (Evaluation B: 10% by weigh or more and less than 50% by weight)” and the glass transition point [4] was 130 °C.
With `Oc1ccc2c(O)cccc2c1C(c1ccc(-c2ccccc2)cc1)c1c(O)ccc2c(O)cccc12` [BisN-4] the thermal decomposition temperature [1] was 250 °C, the “Solubility test of compound in safe solvent PGME” value [2] was “A (A: 5.0% by weight≦dissolution amount)” and the “Solubility test of compound in safe solvent PGMEA” value [2] was “A (A: 5.0% by weight≦dissolution amount)”. For the same molecule, the “solubility in MEK” value [3] was “B (Evaluation B: 10% by weigh or more and less than 50% by weight)” and the glass transition point [4] was 130 °C.
In the case of `Oc1ccc2ccc(C(c3ccc(-c4ccccc4)cc3)c3ccc4ccc(O)cc4c3O)c(O)c2c1` [BisN-5], the thermal decomposition temperature [1] is reported as 250 °C, the “Solubility test of compound in safe solvent PGME” value [2] is reported as “A (A: 5.0% by weight≦dissolution amount)” and the “Solubility test of compound in safe solvent PGMEA” value [2] is reported as “A (A: 5.0% by weight≦dissolution amount)”. For the same molecule, the “solubility in MEK” value [3] was “B (Evaluation B: 10% by weigh or more and less than 50% by weight)” and the glass transition point [4] was 130 °C.
In the case of `Oc1cc2ccccc2c(C(c2ccc(-c3ccccc3)cc2)c2c(O)c(O)cc3ccccc23)c1O` [BisN-6], the thermal decomposition temperature [1] is reported as 250 °C, the “Solubility test of compound in safe solvent PGME” value [2] is reported as “A (A: 5.0% by weight≦dissolution amount)” and the “Solubility test of compound in safe solvent PGMEA” value [2] is reported as “A (A: 5.0% by weight≦dissolution amount)”. For the same molecule, the “solubility in MEK” value [3] was “B (Evaluation B: 10% by weigh or more and less than 50% by weight)” and the glass transition point [4] was 130 °C.
With `Oc1ccc2c(C(c3cccc4ccccc34)c3c(O)ccc4cc(O)ccc34)c(O)ccc2c1` [BisN-7] the thermal decomposition temperature [1] was 255 °C, the “Solubility test of compound in safe solvent PGME” value [2] was “A (A: 5.0% by weight≦dissolution amount)” and the “Solubility test of compound in safe solvent PGMEA” value [2] was “A (A: 5.0% by weight≦dissolution amount)”. The “solubility in MEK” value [3] was “B (Evaluation B: 10% by weigh or more and less than 50% by weight)” and the glass transition point [4] was 135 °C.
For `Oc1ccc2c(C(c3c(O)ccc4cc(O)ccc34)c3cc4ccccc4c4ccccc34)c(O)ccc2c1` [BisN-8], the thermal decomposition temperature [1] was 255 °C, the “Solubility test of compound in safe solvent PGME” value [2] was “A (A: 5.0% by weight≦dissolution amount)” and the “Solubility test of compound in safe solvent PGMEA” value [2] was “A (A: 5.0% by weight≦dissolution amount)”. The “solubility in MEK” value [3] was “B (Evaluation B: 10% by weigh or more and less than 50% by weight)” and the glass transition point [4] was 140 °C.
In the case of `Oc1ccc2c(C(c3c(O)ccc4cc(O)ccc34)c3ccc4ccc5cccc6ccc3c4c56)c(O)ccc2c1` [BisN-9], the thermal decomposition temperature [1] is reported as 260 °C, the “Solubility test of compound in safe solvent PGME” value [2] is reported as “A (A: 5.0% by weight≦dissolution amount)” and the “Solubility test of compound in safe solvent PGMEA” value [2] is reported as “A (A: 5.0% by weight≦dissolution amount)”. The “solubility in MEK” value [3] was “B (Evaluation B: 10% by weigh or more and less than 50% by weight)” and the glass transition point [4] was 140 °C.
With `Oc1ccc2c(C3(c4c(O)ccc5cc(O)ccc45)CCCCC3)c(O)ccc2c1` [BisN-10] the thermal decomposition temperature [1] was 210 °C, the “Solubility test of compound in safe solvent PGME” value [2] was “A (A: 5.0% by weight≦dissolution amount)” and the “Solubility test of compound in safe solvent PGMEA” value [2] was “A (A: 5.0% by weight≦dissolution amount)”. The “solubility in MEK” value [3] was “B (Evaluation B: 10% by weigh or more and less than 50% by weight)” and the glass transition point [4] was 100 °C.
In the case of `Oc1ccc2c(C3(c4c(O)ccc5cc(O)ccc45)c4ccccc4-c4ccccc43)c(O)ccc2c1` [BisN-11], the thermal decomposition temperature [1] is reported as 250 °C, the “Solubility test of compound in safe solvent PGME” value [2] is reported as “A (A: 5.0% by weight≦dissolution amount)” and the “Solubility test of compound in safe solvent PGMEA” value [2] is reported as “A (A: 5.0% by weight≦dissolution amount)”. For the same molecule, the “solubility in MEK” value [3] was “B (Evaluation B: 10% by weigh or more and less than 50% by weight)” and the glass transition point [4] was 135 °C.
With `Oc1ccc2c(C(c3ccc(C(c4c(O)ccc5cc(O)ccc45)c4c(O)ccc5cc(O)ccc45)cc3)c3c(O)ccc4cc(O)ccc34)c(O)ccc2c1` [BisN-12] the thermal decomposition temperature [1] was 245 °C, the “Solubility test of compound in safe solvent PGME” value [2] was “A (A: 5.0% by weight≦dissolution amount)” and the “Solubility test of compound in safe solvent PGMEA” value [2] was “A (A: 5.0% by weight≦dissolution amount)”. The “solubility in MEK” value [3] was “B (Evaluation B: 10% by weigh or more and less than 50% by weight)” and the glass transition point [4] was 130 °C.
For `Oc1cc(O)c2cc1C(c1ccc(C3CCCCC3)cc1)c1cc(c(O)cc1O)C(c1ccc(C3CCCCC3)cc1)c1cc(c(O)cc1O)C(c1ccc(C3CCCCC3)cc1)c1cc(c(O)cc1O)C2c1ccc(C2CCCCC2)cc1` (stereo not drawn) [CR-1, reference compound], the “Solubility test of compound in safe solvent PGME” value [2] was “B (B: 3.0% by weight≦dissolution amount<5.0% by weight)” and the “Solubility test of compound in safe solvent PGMEA” value [2] was “C (C: dissolution amount<3.0% by weight)”.
With `OCCOc1ccc2c3c(ccc2c1)Oc1ccc2cc(OCCO)ccc2c1C3c1ccc(-c2ccccc2)cc1` [Example 29] the thermal decomposition temperature [1] was 375 °C and the glass transition point [4] was 132 °C.
For `Cc1cc(C(c2ccc3ccc(C(c4cc(C)c(O)c(C)c4C)c4cc(C)c(O)c(C)c4C)cc3c2)c2cc(C)c(O)c(C)c2C)c(C)c(C)c1O` [TetP-1, reference compound], the “Solubility test of compound in safe solvent PGME” value [2] was “A (A: 5.0% by weight≦dissolution amount)” and the “Solubility test of compound in safe solvent PGMEA” value [2] was “A (A: 5.0% by weight≦dissolution amount)”.
